Source: PubChem BioAssay AID1963869 (Molecular Pharmacology Branch, DTP, NCI, 2024)

Test system: KRAS patient-derived spheroids with HUVEC/MSC, viability
Assay: Anticancer human tumor 323965-272-R-J2-PDC patient-derived pancreatic carcinoma cell line growth inhibition [KRAS2]
Details: for IC50: curve of first compound; for viability, T/C: stronger effect = lower value
Source text: Multicellular complex tumor spheroid response to RAS pathway inhibitors in combination with a targeted agents in patient-derived cell lines with oncogenic KRAS variants from multiple cancer types
A high-throughput screen of multi-cell type tumor spheroids was designed to identify active combinations of targeted small molecules and KRAS pathway inhibitors. Complex spheroids include a stromal component modeled by human endothelial cells (HUVEC) and fibroblasts modeled by human mesenchymal stem cells (MSCs). The concentration ranges selected for each drug and investigational agent were based upon clinically achievable concentrations if the clinical Cmax of the agent was known.
Compounds. The drugs and investigational agents: BI-3406 (NSC825286), BAY-293 (NSC824723), batoprotafib (TNO155; NSC825523), sotorasib (AMG 510; NSC818433), MRTX1257 (NSC819558), elimusertib (BAY 1895344; NSC800525), molibresib (GSK525762; NSC774829), temuterkib (LY3214996; NSC803410), venetoclax (NSC766270), alisertib (NSC759677), olaparib (NSC753686), talazoparib (NSC767125), erdafitinib (NSC781556), ipatasertib (NSC767898), cabozantinib (NSC761068), nintedanib (NSC756659), abemaciclib (NSC768073), docetaxel (NSC628503), trametinib (NSC758246), and sapanisertib (NSC764658) were obtained from the National Cancer Institute (NCI) Developmental Therapeutics Program Chemical Repository. The FDA-approved anticancer drug set is available from the Developmental Therapeutics Program. […] The stock solutions were prepared in dimethyl sulfoxide (DMSO, Sigma-Aldrich, St. Louis, MO, cat. D2650) at 800-fold the tested concentration and stored at -70 degrees C prior to their use. All drugs and investigational agents were tested over a range starting from a high concentration at or near the clinical Cmax and decreasing in half-log increments. If the clinical Cmax for an agent had not been determined, the highest concentration tested was 10 microM.
Cell Culture. All cells were maintained in an incubator at 37 degrees C and 5% CO2 with 95% humidity. The PDC lines were cultured according to standard operating procedures established by the NCI PDMR (https://pdmr.cancer.gov/sops/default.htm). Briefly, all PDCs were thawed and cultured in Matrigel-coated flasks prepared with a working solution of 1X Ham's F-12 nutrient mix, without supplementation (Invitrogen, Waltham, MA, cat. 11765054), 100 U/mL penicillin-streptomycin (Invitrogen, cat. 15140122), and 2.5% Matrigel (Corning Inc., Corning, NY, cat. 354248) for the first three passages. All PDCs were cultured in complete DMEM/F-12 media containing advanced DMEM/F-12 (Invitrogen, cat. 12634028), 4.9% defined fetal bovine serum, heat inactivated (HyClone Laboratories Inc., Logan, UT, cat. SH30070.03HI), 389 ng/mL hydrocortisone (Sigma-Aldrich, cat. H4001), 9.7 ng/mL human EGF recombinant protein (Invitrogen, cat. PHG0313), 23.4 microg/mL adenine (Sigma-Aldrich, cat. A2786), 97.3 U/mL penicillin-streptomycin (Invitrogen, cat. 15140122), 1.9 mM L-glutamine (Invitrogen, cat. 25030081), and 9.7 microM Y-27632 dihydrochloride (Tocris Bioscience, Bristol, United Kingdom, cat. 1254). The PDCs were cultured in complete DMEM/F12 media without 9.7 microM Y-27632 dihydrochloride for at least two passages prior to the screen. The established cell line HOP-62 was cultured in RPMI 1640 medium, HEPES (Invitrogen, cat. 22400105) with 10% defined fetal bovine serum (HyClone Laboratories Inc., cat. SH30070.03) and 2 mM L-glutamine (Invitrogen, cat. 25030081). The pooled donor HUVEC were cultured in endothelial cell growth medium 2 (PromoCell, Heidelberg, Germany, cat. C-22011) and the hMSC were cultured in mesenchymal stem cell growth medium 2 (PromoCell, cat. C-28009). For all experiments, HUVEC and hMSC were used at passages </=5, while the malignant cell lines were used at passages </=15. […]

[1] = second compound 0.1 µM, first compound 0.0316 µM
[2] = second compound 0.1 µM, first compound 0.1 µM
[3] = second compound 0.1 µM, first compound 0.316 µM
[4] = second compound 0.1 µM, first compound 1 µM
[5] = second compound 0.1 µM, first compound 3.16 µM
[6] = second compound 0.1 µM, first compound 10 µM
[7] = second compound 0.316 µM, first compound 0.0316 µM
[8] = second compound 0.316 µM, first compound 0.1 µM
[9] = second compound 0.316 µM, first compound 0.316 µM
[10] = second compound 0.316 µM, first compound 1 µM
[11] = second compound 0.316 µM, first compound 3.16 µM
[12] = second compound 0.316 µM, first compound 10 µM
[13] = second compound 1 µM, first compound 0.0316 µM
[14] = second compound 1 µM, first compound 0.1 µM
[15] = second compound 1 µM, first compound 0.316 µM
[16] = second compound 1 µM, first compound 1 µM
[17] = second compound 1 µM, first compound 3.16 µM
[18] = second compound 1 µM, first compound 10 µM
[19] = second compound 3.16 µM, first compound 0.0316 µM
[20] = second compound 3.16 µM, first compound 0.1 µM
[21] = second compound 3.16 µM, first compound 0.316 µM
[22] = second compound 3.16 µM, first compound 1 µM
[23] = second compound 3.16 µM, first compound 3.16 µM
[24] = second compound 3.16 µM, first compound 10 µM
[25] = second compound 10 µM, first compound 0.0316 µM
[26] = second compound 10 µM, first compound 0.1 µM
[27] = second compound 10 µM, first compound 0.316 µM
[28] = second compound 10 µM, first compound 1 µM
[29] = second compound 10 µM, first compound 3.16 µM
[30] = second compound 10 µM, first compound 10 µM
[31] = second compound 0.1 µM, first compound 0.000316 µM
[32] = second compound 0.1 µM, first compound 0.001 µM
[33] = second compound 0.1 µM, first compound 0.00316 µM
[34] = second compound 0.1 µM, first compound 0.01 µM
[35] = second compound 0.316 µM, first compound 0.000316 µM
[36] = second compound 0.316 µM, first compound 0.001 µM
[37] = second compound 0.316 µM, first compound 0.00316 µM
[38] = second compound 0.316 µM, first compound 0.01 µM
[39] = second compound 1 µM, first compound 0.000316 µM
[40] = second compound 1 µM, first compound 0.001 µM
[41] = second compound 1 µM, first compound 0.00316 µM
[42] = second compound 1 µM, first compound 0.01 µM
[43] = second compound 3.16 µM, first compound 0.000316 µM
[44] = second compound 3.16 µM, first compound 0.001 µM
[45] = second compound 3.16 µM, first compound 0.00316 µM
[46] = second compound 3.16 µM, first compound 0.01 µM
[47] = second compound 10 µM, first compound 0.000316 µM
[48] = second compound 10 µM, first compound 0.001 µM
[49] = second compound 10 µM, first compound 0.00316 µM
[50] = second compound 10 µM, first compound 0.01 µM
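Note: spheroids exposed to agents for 7 days.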
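Throughout, for viability, T/C: 100% = DMSO vehicle control viability.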

SMILES: CC(C)NCC(C(=O)N1CCN(c2ncnc3c2C(C)CC3O)CC1)c1ccc(Cl)cc1 (stereo not given) + C=CC(=O)N1CCN(c2nc(=O)n(-c3c(C)ccnc3C(C)C)c3nc(-c4c(O)cccc4F)c(F)cc23)C(C)C1
- IC50 (second compound 0.1 µM): 175 nM
- IC50 (second compound 0.316 µM): 80.4 nM
- IC50 (second compound 1 µM): 159 nM
- IC50 (second compound 3.16 µM): 53.5 nM
- IC50 (second compound 10 µM): < 31.6 nM
- viability, T/C [1]: 62.4%
- viability, T/C [2]: 56.3%
- viability, T/C [3]: 43.5%
- viability, T/C [4]: 32.4%
- viability, T/C [5]: 27.1%
- viability, T/C [6]: 23.8%
- viability, T/C [7]: 56.8%
- viability, T/C [8]: 49.2%
- viability, T/C [9]: 40.2%
- viability, T/C [10]: 33%
- viability, T/C [11]: 26%
- viability, T/C [12]: 22.6%
- viability, T/C [13]: 61.2%
- viability, T/C [14]: 55%
- viability, T/C [15]: 42.3%
- viability, T/C [16]: 29.8%
- viability, T/C [17]: 26.4%
- viability, T/C [18]: 27.7%
- viability, T/C [19]: 52.1%
- viability, T/C [20]: 47.3%
- viability, T/C [21]: 37.8%
- viability, T/C [22]: 28.3%
- viability, T/C [23]: 26.9%
- viability, T/C [24]: 27.4%
- viability, T/C [25]: 42.8%
- viability, T/C [26]: 49.7%
- viability, T/C [27]: 30.5%
- viability, T/C [28]: 21.5%
- viability, T/C [29]: 22.9%
- viability, T/C [30]: 18%

SMILES: CC(C)n1nc(-c2ccc3oc(N)nc3c2)c2c(N)ncnc21 + C=CC(=O)N1CCN(c2nc(=O)n(-c3c(C)ccnc3C(C)C)c3nc(-c4c(O)cccc4F)c(F)cc23)C(C)C1
- IC50 (second compound 0.1 µM): 0.446 nM
- IC50 (second compound 0.316 µM): 0.394 nM
- IC50 (second compound 1 µM): 0.514 nM
- IC50 (second compound 3.16 µM): 0.381 nM
- IC50 (second compound 10 µM): < 0.316 nM
- viability, T/C [31]: 53.7%
- viability, T/C [32]: 41.4%
- viability, T/C [33]: 28.3%
- viability, T/C [34]: 19.1%
- viability, T/C [1]: 15.9%
- viability, T/C [2]: 12.3%
- viability, T/C [35]: 53.2%
- viability, T/C [36]: 37.8%
- viability, T/C [37]: 30.5%
- viability, T/C [38]: 22.1%
- viability, T/C [7]: 14.8%
- viability, T/C [8]: 12.5%
- viability, T/C [39]: 56.9%
- viability, T/C [40]: 41.1%
- viability, T/C [41]: 28.6%
- viability, T/C [42]: 19.3%
- viability, T/C [13]: 15.6%
- viability, T/C [14]: 13.3%
- viability, T/C [43]: 51.6%
- viability, T/C [44]: 41.9%
- viability, T/C [45]: 29%
- viability, T/C [46]: 17.5%
- viability, T/C [19]: 13.7%
- viability, T/C [20]: 12.3%
- viability, T/C [47]: 48.8%
- viability, T/C [48]: 36.3%
- viability, T/C [49]: 24.1%
- viability, T/C [50]: 19.4%
- viability, T/C [25]: 12.4%
- viability, T/C [26]: 12.7%

SMILES: CC1(C)CCC(CN2CCN(c3ccc(C(=O)NS(=O)(=O)c4ccc(NCC5CCOCC5)c([N+](=O)[O-])c4)c(Oc4cnc5[nH]ccc5c4)c3)CC2)=C(c2ccc(Cl)cc2)C1 + C=CC(=O)N1CCN(c2nc(=O)n(-c3c(C)ccnc3C(C)C)c3nc(-c4c(O)cccc4F)c(F)cc23)C(C)C1
- IC50 (second compound 0.1 µM): 1100 nM
- IC50 (second compound 0.316 µM): 1320 nM
- IC50 (second compound 1 µM): 1260 nM
- IC50 (second compound 3.16 µM): 1210 nM
- IC50 (second compound 10 µM): 81.8 nM
- viability, T/C [1]: 59.2%
- viability, T/C [2]: 59.6%
- viability, T/C [3]: 63.3%
- viability, T/C [4]: 52.7%
- viability, T/C [5]: 17%
- viability, T/C [6]: 4.37%
- viability, T/C [7]: 64.6%
- viability, T/C [8]: 58.1%
- viability, T/C [9]: 56.3%
- viability, T/C [10]: 60.4%
- viability, T/C [11]: 18.8%
- viability, T/C [12]: 5.39%
- viability, T/C [13]: 61.1%
- viability, T/C [14]: 61.9%
- viability, T/C [15]: 60.3%
- viability, T/C [16]: 59.5%
- viability, T/C [17]: 12%
- viability, T/C [18]: 2.97%
- viability, T/C [19]: 62%
- viability, T/C [20]: 62.3%
- viability, T/C [21]: 57.8%
- viability, T/C [22]: 56.9%
- viability, T/C [23]: 15.8%
- viability, T/C [24]: 5.2%
- viability, T/C [25]: 61%
- viability, T/C [26]: 37.6%
- viability, T/C [27]: 43.4%
- viability, T/C [28]: 36.3%
- viability, T/C [29]: 15.8%
- viability, T/C [30]: 2.88%

SMILES: Cn1ncnc1[C@H]1c2n[nH]c(=O)c3cc(F)cc(c23)N[C@@H]1c1ccc(F)cc1 + C=CC(=O)N1CCN(c2nc(=O)n(-c3c(C)ccnc3C(C)C)c3nc(-c4c(O)cccc4F)c(F)cc23)C(C)C1
- IC50 (second compound 0.1 µM): > 100 nM
- IC50 (second compound 0.316 µM): > 100 nM
- IC50 (second compound 1 µM): > 100 nM
- IC50 (second compound 3.16 µM): > 100 nM
- IC50 (second compound 10 µM): 23.7 nM
- viability, T/C [31]: 59.7%
- viability, T/C [32]: 65.8%
- viability, T/C [33]: 58.8%
- viability, T/C [34]: 57.8%
- viability, T/C [1]: 58.9%
- viability, T/C [2]: 55.7%
- viability, T/C [35]: 63%
- viability, T/C [36]: 63.2%
- viability, T/C [37]: 61.2%
- viability, T/C [38]: 55%
- viability, T/C [7]: 64%
- viability, T/C [8]: 57.4%
- viability, T/C [39]: 72.5%
- viability, T/C [40]: 64.2%
- viability, T/C [41]: 68.3%
- viability, T/C [42]: 58.7%
- viability, T/C [13]: 63.9%
- viability, T/C [14]: 57%
- viability, T/C [43]: 63.6%
- viability, T/C [44]: 65.6%
- viability, T/C [45]: 63.5%
- viability, T/C [46]: 64.7%
- viability, T/C [19]: 67.3%
- viability, T/C [20]: 54.6%
- viability, T/C [47]: 58.8%
- viability, T/C [48]: 62.7%
- viability, T/C [49]: 57.4%
- viability, T/C [50]: 50.4%
- viability, T/C [25]: 50.9%
- viability, T/C [26]: 41.2%
